Laboratory results reported in US20040014721A1, “Method for using tethered bis(polyhydroxyphenyls) and O-alkyl derivatives thereof in treating inflammatory conditions of the central nervous system” (Oklahoma Medical Research Foundation, priority 2002, published 2004).
“Also recorded” adds a separate entry of the source.

Tests used:
LnCAP Production of PSA = test: LnCAP production of PSA (ELISA); type: cell-based; conditions: Homo sapiens, LNCaP, 24 h
Experimental: LnCAP prostate cancer cells were be cultured according to established methods (Horoszewicz et al., 1983). These cells product prostate-specific antigen (PSA), a serine protease that predicts metastatic potential ([…] et al., 2000). […] Each drug was tested in triplicate at each concentration. Medium was removed and tested for PSA concentration using a commercially available enzyme-linked immunosorbent assay (ELISA). Viability was determined in the adherent cells using the MTT assay.

G93A-SOD1 mice [1] = test: G93A-SOD1 mouse ALS model, NDGA i.p.: rotorod and survival; type: in vivo
Experimental: More subtle defects in motor performance are measured using a rotorod device. The animals are placed on a horizontal rod set to spin about its long axis, initially at 1 rpm. The revolution rate is increased at a constant rate of 1 rpm every 10 sec and the experiment continues until the animal falls off the rod. In contrast to mice bearing mutant SOD1 transgenes, animals bearing the wild-type human SOD1 transgenes display healthy motor function.
The G93A-SOD1 mice were used to test for in vivo efficacy of a benchmark tethered bis(polyhydroxyphenyl) compound, nordihydroguaiaretic acid (NDGA). In one experiment, 10 G93A-SOD1 animals were trained to the rotorod task at 85 days of age. At 90 days of age, animals were divided into two groups of 5 animals each. One group was injected intraperitoneally with NDGA (10 mg/kg, 5 days/week, in 95% saline/5% DMSO vehicle). The control group received vehicle only. Animals were tested on the rotorod device every 5 days subsequently.
Initially, rotorod performance characteristics improve in all mice as the animals become acquainted with the apparatus. At 100 days animals obtain peak performance (FIG. 3A). At timepoints subsequent to 100 day, animals decline in motor performance. In order to control for differences in initial strength amongst the 10 animals, all data subsequent to the 100 day timepoint was expressed as a percentage relative to the peak performance at 100 day (FIGS. 3B and 3C). […] When the data in FIG. 3B were assessed using repeated measures analysis of variance (ANOVA), a significant age X treatment effect was observed (p<0.005). At the 120D timepoint, the statistical assessment by Student's t-test indicates p<0.08 between drug and vehicle groups (i.e. 92% probability of a protective drug effect).
The potency of NDGA in vitro inspired further study in vivo. Two separate studies were performed. In the first experiment, 10 G93A-SOD1 mice were randomized into groups receiving 10 mg/kg NDGA i.p. or vehicle alone, beginning at 90 D of age. […] Rotarod performance tests were conducted at 5 D intervals. […] The median lifespan of the five NDGA-treated animals was 127 D, as compared to 121 D for the control group, representing a 20% extension of lifespan after the start of treatment.
In a separate experiment, NDGA was administered intraperitoneally to a small group of G93A-SOD1 mice (5 control and 5 drug-treated animals; 10 mg/kg 5 days/week beginning at 90 D). In this paradigm, NDGA also extended survival although logrank statistics were not formally significant (median lifespan after start of treatment=31 D in control animals and 37 D in NDGA-treated animals; p=0.074 by logrank test). […] The i.p. administration of NDGA was somewhat affected by the inclusion of DMSO in vehicle; G93A-SOD1 mice receiving DMSO alone died approximately 10 D sooner than normally would be expected from these animals. Taken together, the data strongly indicate a positive effect of NDGA on the prognosis of disease in rapidly-progressing G93A-SOD1 mice.

Aβ-induced neurotoxicity = test: Rat model of Aβ-induced neurotoxicity (ICV Aβ40 + Aβ42 + ApoE4), radial eight-arm maze; type: in vivo, Sprague-Dawley male rats; conditions: 0.25% NDGA diet
From the text: In this model, rats are infused intracerebroventricularly (ICV) with Aβ adsorbed to an apo-lipoprotein carrier. Thus, to determine whether dicatechol (e.g., microglial inhibitor nordihydroguaiaretic acid) blocks Aβ-induced neurotoxicity the Frautschy model was used. […] Each group consisted of six rats fed either a control or an NDGA supplemented diet (Table VII).
Rats were trained on a radial eight-arm maze as described previously. After they achieved 0-2 error level, they underwent surgery for implantation of the cannulae and osmotic pumps. Twenty-four hours after surgery, they were started on the dietary treatment.
Time and error scores from six trials for each experimental group were subjected to analysis of variance (ANOVA). Tucky-Kramer test for multiple comparisons was used as a posthoc test. Performance in the memory task was analyzed separately over all six trials.

mice = conditions: cited from earlier work
Water solubility = type: physicochemical
G93A-SOD1 mice [2] = test: Immunochemistry of lumbar spinal cord of G93A-SOD1 mice on oral NDGA (GFAP, F4/80); type: in vivo, mouse
Experimental: Mice were anesthetized with pentobarbital and perfused transcardially with 4% paraformaldehyde in phosphate buffer. The lumbar region (L1-L5) was processed for paraffin embedding. Immunochemistry was performed on […] sections, using commercially available antibodies, and tissue sections were routinely counterstained with hematoxylin and eosin. Polyclonal anti-SOD1 IgG was purchased from Chemicon (Temecula, Calif.). Polyclonal anti-5LOX IgG was purchased from Cayman Chemical (San Diego, Calif.). Monoclonal anti-5LOX was obtained from Transduction Laboratories (Lexington, Ky.). Polyclonal antibody against glial fibrillary acidic protein (GFAP) was purchased from Research Diagnostics International (Flanders, N.J.). FITC-conjugated anti-F4/80, which recognizes a microglial cell surface antigen (Drachman et al., 2002), was purchased from Serotec (Raleigh, N.C.). Positive control for 5LOX Western blots was SL-29 fibroblast lysate (Transduction Laboratories, provided with the antibody). Electrophoresis was performed on 4-20% gradient polyacrylamide gels, and bands were visualized with chemiluminescence detection reagents (Amersham).
Microglial proliferation is another neuroinflammatory feature inherent to motoneuron disease in the G93A-SOD1 mouse (Drachman et al., 2002). […]

EOC-20 cells = system: EOC-20 cells
Experimental: Lower IC50 values indicate improved efficacy. FIG. 2 illustrates the principle of the measurement using NDGA as an example test agent. In order to determine viability, cell culture medium was replaced with phenol-free DMEM (Gibco) containing 20 μL/mL of MTT viability reagent (Promega). […] Control cells were taken to indicate 100% viability and intermediate values of MTT reduction were scaled to percentage of control. For each compound, an LD50 value was determined by extrapolation through sublethal concentrations. This value represents the concentration that reduced the MTT viability parameter by 50%.

Question: Which IC50 (LnCAP Production of PSA) does the source give for `C[C@H](Cc1ccc(O)c(O)c1)[C@@H](C)Cc1ccc(O)c(O)c1` [NDGA, 1,4-bis (3,4-Dihydroxyphenyl)-2,3-dimethylbutane] here?
Answer: Its IC50 is 15 µM.

Question: What about the “median lifespan after start of treatment” value (G93A-SOD1 mice [1]; 10 mg/kg i.p. 5 days/week from 90 D) of the same compound?
Answer: Its value is 37 D.

Question: What about the “extension of lifespan after the start of treatment” value (G93A-SOD1 mice [1]; 10 mg/kg i.p. from 90 D) of the same compound?
Answer: The value was 20%.

Question: What about the median lifespan (G93A-SOD1 mice [1]; 10 mg/kg i.p. from 90 D) of the same compound?
Answer: The median lifespan was 127 D.

Question: What about the “reduction in rate of motor functional decline relative to vehicle” value (G93A-SOD1 mice [1]; 10 mg/kg i.p. from 90 D, linear regression 100-120D) of the same compound?
Answer: Its value is 38%.

Question: What about the “slope of motor functional decline” value (G93A-SOD1 mice [1]; 10 mg/kg i.p., 100-120D) of the same compound?
Answer: The value was 2.96 % decrease/day.

Question: What about the “rotarod performance” value (G93A-SOD1 mice [1]; i.p. administration) of the same compound?
Answer: The value was “not significantly affected”.

Question: And the “working memory errors and latency” value (Aβ-induced neurotoxicity; day 25)?
Answer: Its value is “significant decrease in the number of working memory errors and latency”.

Question: What about the reference errors (Aβ-induced neurotoxicity; day 25 and day 30, not significant) of the same compound?
Answer: The reference errors was “suppressed reference errors”.

Question: What about the “effects of long-term feeding” value (mice; 0.5% of the diet, long-term, mice) of the same compound?
Answer: The value was “no ill effects”.

Question: What about the LD50 (mice; mouse, in vivo, ip) of the same compound?
Answer: Its LD50 is “greater than 500 mg/kg”.

Question: What about the “water solubility” value (Water solubility) of the same compound?
Answer: Its value is “limited water solubility”.

Question: What about the “F4/80-positive microglia, lumbar spinal cord” value (G93A-SOD1 mice [2]; 120 D of age) of the same compound?
Answer: The value was “diminished the number of F4/80-positive microglia”.

Question: What about the “astrogliosis (GFAP-positive astrocytes), lumbar spinal cord” value (G93A-SOD1 mice [2]; 120 D old mice) of the same compound?
Answer: The value was “significantly diminished astrogliosis; also recorded: significantly decreased the number of GFAP-positive astrocytes”.

Question: What about the “toxicity at 100 μM” value (EOC-20 cells) of the same compound?
Answer: The value was “no toxicity”.
